How the values were obtained:
[1] = Inhibition of cell proliferation of human HCT116 cells after 72 hrs by thermostable firefly luciferase based assay; format: functional, HCT-116; details: Homo sapiens, HCT-116, 72 h; read-out: IC50
[2] = target: Transitional endoplasmic reticulum ATPase (Homo sapiens, UniProt P55072); assay: biochemical; format: cell-based
Chain of Transitional endoplasmic reticulum ATPase (P55072 whole entry): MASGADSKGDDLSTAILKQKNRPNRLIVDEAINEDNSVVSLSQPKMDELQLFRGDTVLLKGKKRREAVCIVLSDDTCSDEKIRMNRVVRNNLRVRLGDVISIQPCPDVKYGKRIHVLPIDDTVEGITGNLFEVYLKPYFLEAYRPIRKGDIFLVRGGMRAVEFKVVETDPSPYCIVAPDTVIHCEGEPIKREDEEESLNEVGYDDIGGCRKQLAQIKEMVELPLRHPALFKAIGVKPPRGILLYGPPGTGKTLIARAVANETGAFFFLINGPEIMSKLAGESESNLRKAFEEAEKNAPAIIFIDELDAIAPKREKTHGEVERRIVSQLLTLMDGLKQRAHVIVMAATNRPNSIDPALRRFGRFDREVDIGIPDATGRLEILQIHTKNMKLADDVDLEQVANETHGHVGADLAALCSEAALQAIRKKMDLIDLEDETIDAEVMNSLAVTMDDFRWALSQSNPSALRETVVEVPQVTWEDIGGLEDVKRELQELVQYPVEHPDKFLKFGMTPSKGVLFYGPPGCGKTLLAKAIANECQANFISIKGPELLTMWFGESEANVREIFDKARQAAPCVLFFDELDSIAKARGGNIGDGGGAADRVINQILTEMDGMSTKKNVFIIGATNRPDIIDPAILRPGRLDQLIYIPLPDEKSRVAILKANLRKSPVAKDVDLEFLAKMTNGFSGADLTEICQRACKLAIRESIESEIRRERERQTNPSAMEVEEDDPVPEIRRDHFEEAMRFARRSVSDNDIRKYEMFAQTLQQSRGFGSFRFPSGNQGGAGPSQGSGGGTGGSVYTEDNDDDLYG
Description: Inhibition of human full length VCP (2 to 806 residues) expressed in High5 insect cells assessed as reduction in ATPase activity by measuring ADP formation by NADH coupled assay

Structure (SMILES)	IC50 [2]	IC50 [1]
CNC(=O)[C@H]1CC[C@H](CNc2nc(NCc3ccccc3)cc(-c3ccccc3)n2)CC1	448 nM	9260 nM
CS(=O)(=O)NC(=O)[C@H]1CC[C@H](CNc2nc(NCc3ccccc3)cc(-c3ccccc3)n2)CC1	133 nM	> 20000 nM
O=C(NS(=O)(=O)C(F)(F)F)[C@H]1CC[C@H](CNc2nc(NCc3ccccc3)cc(-c3ccccc3)n2)CC1	264 nM	> 20000 nM
NNC(=O)[C@H]1CC[C@H](CNc2nc(NCc3ccccc3)cc(-c3ccccc3)n2)CC1	986 nM	> 20000 nM
NC(=O)[C@H]1CC[C@H](CNc2nc(NCc3ccccc3)cc(-c3ccccc3F)n2)CC1	46 nM	> 10000 nM

More lines, main results first:

IC50 [2]	Structure (SMILES)	IC50 [1]
27 nM	O=C(O)[C@H]1CC[C@H](CNc2nc(NCc3ccccc3)cc(-c3ccccc3)n2)CC1	> 20000 nM
127 nM	NC(=O)[C@H]1CC[C@H](CNc2nc(NCc3ccccc3)cc(-c3ccccc3)n2)CC1	9580 nM
